Measured values: paper PMC7255801, “Disease-associated mutations in the human TRPM3 render the channel overactive via two distinct mechanisms” (eLife, 2020)

Target: T1, wild-type hTRPM3_1325 (Homo sapiens, UniProt Q9HCF6)
T1 construct: expressed in transfected cells; host or cells: Xenopus laevis oocytes (cRNA injection)
T1 sequence (Q9HCF6 1-1325 isoform Q9HCF6-10): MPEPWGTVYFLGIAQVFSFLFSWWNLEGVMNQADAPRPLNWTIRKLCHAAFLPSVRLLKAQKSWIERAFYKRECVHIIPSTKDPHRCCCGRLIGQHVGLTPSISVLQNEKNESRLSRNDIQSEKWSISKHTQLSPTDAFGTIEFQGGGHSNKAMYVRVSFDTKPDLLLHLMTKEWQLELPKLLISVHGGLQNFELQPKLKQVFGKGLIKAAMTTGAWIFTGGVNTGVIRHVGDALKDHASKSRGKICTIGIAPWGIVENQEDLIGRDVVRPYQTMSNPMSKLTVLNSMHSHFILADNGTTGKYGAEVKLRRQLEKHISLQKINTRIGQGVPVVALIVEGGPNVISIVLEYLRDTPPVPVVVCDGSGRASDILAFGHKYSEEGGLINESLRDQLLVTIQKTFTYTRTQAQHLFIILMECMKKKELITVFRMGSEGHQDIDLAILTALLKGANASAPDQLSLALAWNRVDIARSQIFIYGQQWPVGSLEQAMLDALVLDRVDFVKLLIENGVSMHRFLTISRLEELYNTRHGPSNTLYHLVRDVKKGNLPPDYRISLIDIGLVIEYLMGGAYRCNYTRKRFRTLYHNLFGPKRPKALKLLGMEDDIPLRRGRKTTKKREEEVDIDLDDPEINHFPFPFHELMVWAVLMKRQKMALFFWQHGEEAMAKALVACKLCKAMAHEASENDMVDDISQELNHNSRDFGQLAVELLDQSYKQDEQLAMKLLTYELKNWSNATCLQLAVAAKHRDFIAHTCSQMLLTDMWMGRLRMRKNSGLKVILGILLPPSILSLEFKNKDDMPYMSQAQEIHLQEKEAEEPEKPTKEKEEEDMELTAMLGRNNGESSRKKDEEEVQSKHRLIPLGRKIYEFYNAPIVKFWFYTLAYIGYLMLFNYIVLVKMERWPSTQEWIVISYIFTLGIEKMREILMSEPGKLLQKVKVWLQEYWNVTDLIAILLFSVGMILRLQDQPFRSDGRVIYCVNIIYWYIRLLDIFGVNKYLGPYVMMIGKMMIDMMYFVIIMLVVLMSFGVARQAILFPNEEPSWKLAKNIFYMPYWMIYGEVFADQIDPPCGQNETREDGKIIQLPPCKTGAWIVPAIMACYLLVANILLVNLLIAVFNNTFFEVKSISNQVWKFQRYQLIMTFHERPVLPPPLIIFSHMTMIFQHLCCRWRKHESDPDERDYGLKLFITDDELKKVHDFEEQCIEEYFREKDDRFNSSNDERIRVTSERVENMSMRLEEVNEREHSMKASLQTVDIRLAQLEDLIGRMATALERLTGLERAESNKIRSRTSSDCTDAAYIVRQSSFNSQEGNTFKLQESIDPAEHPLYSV
Assay: Two electrode voltage clamp in Xenopus oocytes, wild type channel
Assay type: cell-based
Conditions: wild type TRPM3, 50 μM, room temperature (20–22°C)
Description: Xenopus laevis oocytes were prepared as described earlier ([Badheka et al., 2015]). All animal procedures were approved by the Institutional Animal Care and Use Committee at Rutgers New Jersey Medical School. In brief, frogs were anesthetized in 0.25% ethyl 3-aminobenzoate methanesulfonate solution (MS222; Sigma-Aldrich); bags of ovaries were removed surgically from the anesthetized frogs. Individual oocytes were obtained by overnight digestion at 16°C in 0.2–0.3 mg/ml type 1A collagenase (Sigma-Aldrich), dissolved in a solution containing 82.5 mM NaCl, 2 mM KCl, 1 mM MgCl2, and […] HEPES, pH 7.4 (OR2 solution). The next day the collagenase containing solution was discarded and the oocytes were washed multiple times with OR2 solution. […]
Two electrode voltage clamp experiments were performed as described ([Badheka et al., 2015]). In brief, oocytes were placed in extracellular solution (97 mM NaCl, 2 mM KCl, 1 mM MgCl2, and […] HEPES, pH 7.4), and currents were recorded with thin-wall inner filament– containing glass pipettes (World Precision Instruments) filled with 3 M KCl in 1% agarose. Currents were measured with a ramp protocol from −100 to 100 mV once every 0.5 s with a GeneClamp 500B amplifier and analyzed with the pClamp 9.0 software (Molecular Devices). […]

Inhibition of basal current: small reduction
Structure (SMILES): CCC1(c2ccccc2)C(=O)NCNC1=O [primidone]
